Calls of active or inactive are those of the source.
Columns and labels:
INS1 = assay: INS-1E survival protection against cytokine death – cell-based, luminescence, retest, dose response (AID 449756); format: functional; settings: Rattus norvegicus;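 note: cell death triggered by IL-1 beta plus TNF-alpha plus IFN-gamma mixture; protective hits raise ATP signal compared with cytokine alone wells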
[1] = target: T1, Methionyl-tRNA synthetase, putative (Trypanosoma brucei brucei, UniProt Q38C91); format: functional, Trypanosoma brucei brucei strain 927/4 GUTat10.1
[2] = Counterscreen for inhibitors of Trypanosoma brucei methionyl tRNA synthetase (MetRS): Luminescence-based cell-based high throughput dose response assay to identify compounds that are cytotoxic to Jurkat human T lymphocyte cells.; format: functional
[3] = target: T1, Methionyl-tRNA synthetase, putative; format: functional, Trypanosoma brucei brucei strain 927/4 GUTat10.1; remark: listed apart in the source
[4] = target: T2, Rac GTPase-activating protein 1 (Homo sapiens, UniProt Q9H0H5); assay: blockers of MgcRacGAP-driven Rac1 GTP hydrolysis – biochemical, ADP Hunter fluorescence, primary and confirmatory, confirmation (AID 624330); format: functional
T2 sequence (Q9H0H5 whole entry): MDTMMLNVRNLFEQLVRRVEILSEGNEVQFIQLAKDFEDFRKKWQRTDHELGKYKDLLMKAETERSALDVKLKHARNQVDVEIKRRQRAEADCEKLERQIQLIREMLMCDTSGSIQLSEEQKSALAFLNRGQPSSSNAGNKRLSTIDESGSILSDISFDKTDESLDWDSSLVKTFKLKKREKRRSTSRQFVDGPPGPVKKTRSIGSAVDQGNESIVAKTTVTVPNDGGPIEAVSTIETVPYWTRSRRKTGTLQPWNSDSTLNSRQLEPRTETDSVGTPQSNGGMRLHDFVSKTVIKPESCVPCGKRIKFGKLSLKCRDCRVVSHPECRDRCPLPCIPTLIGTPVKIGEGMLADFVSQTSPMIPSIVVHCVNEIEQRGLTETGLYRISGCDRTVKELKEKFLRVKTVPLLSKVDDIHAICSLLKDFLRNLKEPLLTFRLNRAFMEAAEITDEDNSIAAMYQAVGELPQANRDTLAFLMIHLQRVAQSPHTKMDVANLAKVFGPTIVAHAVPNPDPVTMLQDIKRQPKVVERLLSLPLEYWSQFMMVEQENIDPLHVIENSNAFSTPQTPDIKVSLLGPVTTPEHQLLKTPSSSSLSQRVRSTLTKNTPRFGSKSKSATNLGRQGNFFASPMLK

[5] = target: T3, Delta-type opioid receptor (Homo sapiens, UniProt P41143); assay: HTS Image-Based Screen for Antagonists of the DOR Receptor. [Related pubchem assays (depositor defined):AID1777, AID1785, AID1786, AID2133]; format: functional
[6] = viability loss in HeLa cells – cytotoxicity control for MgcRacGAP inhibitor project, dose response (AID 624300); format: functional
[7] = target: T4, Kappa-type opioid receptor (Homo sapiens, UniProt P41145); format: functional
Protein RecA = target: T5, Protein RecA (Mycobacterium tuberculosis, UniProt P9WHJ3); assay: Fluorescence Cell-Free Homogeneous Dose Retest to Identify Inhibitors of RecA-Intein Splicing Activity. [Related pubchem assays (depositor defined):AID2097, AID2223, AID489010, AID492950]; format: functional
T5 sequence (P9WHJ3 whole entry): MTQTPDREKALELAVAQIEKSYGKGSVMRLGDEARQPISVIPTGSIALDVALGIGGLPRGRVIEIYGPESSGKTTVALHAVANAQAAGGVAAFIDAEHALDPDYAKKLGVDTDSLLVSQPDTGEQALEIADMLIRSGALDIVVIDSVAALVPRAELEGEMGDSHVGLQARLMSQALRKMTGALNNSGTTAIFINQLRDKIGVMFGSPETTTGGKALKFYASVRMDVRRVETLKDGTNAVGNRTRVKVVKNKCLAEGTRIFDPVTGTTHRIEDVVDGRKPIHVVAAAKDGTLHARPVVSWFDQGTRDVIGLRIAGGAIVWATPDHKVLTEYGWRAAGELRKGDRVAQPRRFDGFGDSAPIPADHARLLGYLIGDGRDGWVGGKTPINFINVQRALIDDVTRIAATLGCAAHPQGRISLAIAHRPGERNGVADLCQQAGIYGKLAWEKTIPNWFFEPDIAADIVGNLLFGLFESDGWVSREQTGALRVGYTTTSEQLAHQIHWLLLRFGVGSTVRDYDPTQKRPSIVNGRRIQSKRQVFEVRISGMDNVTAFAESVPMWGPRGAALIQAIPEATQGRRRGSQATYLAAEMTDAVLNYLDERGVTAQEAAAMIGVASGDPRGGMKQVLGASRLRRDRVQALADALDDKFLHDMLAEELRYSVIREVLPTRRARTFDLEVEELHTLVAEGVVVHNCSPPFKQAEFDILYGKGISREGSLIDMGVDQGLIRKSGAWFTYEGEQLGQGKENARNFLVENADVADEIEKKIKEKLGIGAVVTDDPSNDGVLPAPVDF

[8] = target: T6, Replicative DNA helicase DnaB (Mycobacterium tuberculosis, UniProt P9WMR3); assay: DnaB intein splicing inhibitors, dose response, biochemical, cell-free fluorescence (AID 449749); format: functional
T6 sequence (P9WMR3 whole entry): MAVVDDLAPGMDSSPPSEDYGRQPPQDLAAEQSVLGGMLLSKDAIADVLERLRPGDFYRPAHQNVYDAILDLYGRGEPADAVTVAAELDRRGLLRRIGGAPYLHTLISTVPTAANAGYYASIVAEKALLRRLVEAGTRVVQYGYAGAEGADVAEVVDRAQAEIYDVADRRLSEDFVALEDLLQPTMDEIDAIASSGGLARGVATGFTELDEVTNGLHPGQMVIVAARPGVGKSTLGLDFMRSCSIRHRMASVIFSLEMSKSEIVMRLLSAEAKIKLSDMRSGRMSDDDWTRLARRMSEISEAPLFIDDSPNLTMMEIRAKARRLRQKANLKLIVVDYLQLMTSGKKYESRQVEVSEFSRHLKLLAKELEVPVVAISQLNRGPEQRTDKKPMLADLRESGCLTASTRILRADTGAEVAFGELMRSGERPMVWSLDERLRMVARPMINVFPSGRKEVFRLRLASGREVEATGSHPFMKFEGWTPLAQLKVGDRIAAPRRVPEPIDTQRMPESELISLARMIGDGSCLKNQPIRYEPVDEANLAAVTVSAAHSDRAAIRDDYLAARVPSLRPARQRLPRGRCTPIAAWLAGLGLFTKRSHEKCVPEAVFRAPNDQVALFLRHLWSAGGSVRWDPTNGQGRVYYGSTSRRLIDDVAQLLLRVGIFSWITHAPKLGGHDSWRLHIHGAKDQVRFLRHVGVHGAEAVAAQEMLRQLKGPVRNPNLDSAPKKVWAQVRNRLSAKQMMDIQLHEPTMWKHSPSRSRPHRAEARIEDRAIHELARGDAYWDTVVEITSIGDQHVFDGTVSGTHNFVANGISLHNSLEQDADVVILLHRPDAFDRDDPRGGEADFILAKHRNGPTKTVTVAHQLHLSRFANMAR

[9] = target: T4, Kappa-type opioid receptor; format: functional; remark: listed apart in the source
Mu-type opioid receptor = Mu-type opioid receptor (Homo sapiens, UniProt P35372); assay: HTS Image-Based Screen for Agonists of the MOR Receptor. [Related pubchem assays (depositor defined):AID1777, AID1785, AID1786, AID2133]; format: functional;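 note: imaging of beta-arrestin GFP recruitment into spots after receptor activation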
[10] = target: T3, Delta-type opioid receptor; assay: HTS Image-Based Screen for Agonists of the DOR Receptor. [Related pubchem assays (depositor defined):AID1777, AID1786, AID2133]; format: functional
Beta-galactosidase = Beta-galactosidase (Escherichia coli, UniProt Q8VNN2); format: functional
[11] = non-specific 3'UTR reporter inhibition in Clone20-Shn3RL – cell-based, Renilla luciferase, cherry-picked, counter-screen for Shn3 inhibitor project, dose response (AID 624133); format: functional
[12] = target: T7, Sentrin-specific protease 8 (Homo sapiens, UniProt Q96LD8); format: functional
T7 sequence (Q96LD8 whole entry): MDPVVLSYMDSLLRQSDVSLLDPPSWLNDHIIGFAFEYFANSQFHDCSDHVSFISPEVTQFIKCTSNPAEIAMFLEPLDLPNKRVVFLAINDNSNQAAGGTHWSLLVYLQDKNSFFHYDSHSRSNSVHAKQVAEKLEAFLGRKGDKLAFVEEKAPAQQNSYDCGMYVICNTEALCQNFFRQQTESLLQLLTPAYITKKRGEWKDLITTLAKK

Caspase-3 = target: T8, Caspase-3 (Homo sapiens, UniProt P42574); assay: Dose-response confirmation of uHTS inhibitor hits of Sentrin-Specific Protease 8 in a Caspase-3 Fluorescence assay.; format: functional
T8 sequence (P42574 whole entry): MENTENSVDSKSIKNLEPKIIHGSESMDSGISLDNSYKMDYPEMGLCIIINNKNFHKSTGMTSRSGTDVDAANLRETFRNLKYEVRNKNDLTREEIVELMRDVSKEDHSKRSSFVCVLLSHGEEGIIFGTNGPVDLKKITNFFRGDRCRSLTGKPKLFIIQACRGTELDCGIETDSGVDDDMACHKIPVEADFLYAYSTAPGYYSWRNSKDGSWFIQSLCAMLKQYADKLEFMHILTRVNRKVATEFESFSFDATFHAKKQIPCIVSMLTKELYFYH

[13] = target: T7, Sentrin-specific protease 8; format: functional; remark: listed apart in the source
[14] = NIH3T3 cell viability loss – ATP luminescence, mouse fibroblasts, counter-screen, dose response (AID 2010); format: functional, cell-based;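 note: cells exposed to compound for about 90 hours before reading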
[15] = Trypanosoma cruzi growth suppression in host cells – NIH3T3 host cells, beta-gal luminescence, confirmation (AID 2044); format: functional, cell-based;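 note: intracellular parasites grown in NIH/3T3 mouse fibroblasts as host cells; luminescent beta-galactosidase reporter signal from transgenic T. cruzi replicating inside host cells; inhibitors lower the luminescence signal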
[16] = loss of viability in HepG2 cells – cell-based, CellTiter-Glo, cherry-picked, cytotoxicity control for Shn3 inhibitor project, dose response (AID 624134); format: functional
[17] = target: Heat shock protein HSP 90-alpha (Homo sapiens, UniProt P07900); format: functional, organism-based
cells = format: functional
[18] = inhibitors of EBV LMP1 NF-kappaB signaling – cell-based, luciferase reporter, luminescence, dry powder, set 2, dose response (AID 624376); format: functional
[19] = target: Long-chain-fatty-acid--AMP ligase FadD28 (Mycobacterium tuberculosis, UniProt P9WQ59); assay: Fluorescence polarization aasay to screen for inhibitors that compete for the binding of FadD28 to a bisubstrate Measured in Biochemical System Using Plate Reader - 2147-01_Inhibitor_Dose_CherryPick_Activity.; format: functional, Mycobacterium tuberculosis H37Rv
Long-chain-fatty-acid--AMP ligase FadD28, sequence (P9WQ59 whole entry): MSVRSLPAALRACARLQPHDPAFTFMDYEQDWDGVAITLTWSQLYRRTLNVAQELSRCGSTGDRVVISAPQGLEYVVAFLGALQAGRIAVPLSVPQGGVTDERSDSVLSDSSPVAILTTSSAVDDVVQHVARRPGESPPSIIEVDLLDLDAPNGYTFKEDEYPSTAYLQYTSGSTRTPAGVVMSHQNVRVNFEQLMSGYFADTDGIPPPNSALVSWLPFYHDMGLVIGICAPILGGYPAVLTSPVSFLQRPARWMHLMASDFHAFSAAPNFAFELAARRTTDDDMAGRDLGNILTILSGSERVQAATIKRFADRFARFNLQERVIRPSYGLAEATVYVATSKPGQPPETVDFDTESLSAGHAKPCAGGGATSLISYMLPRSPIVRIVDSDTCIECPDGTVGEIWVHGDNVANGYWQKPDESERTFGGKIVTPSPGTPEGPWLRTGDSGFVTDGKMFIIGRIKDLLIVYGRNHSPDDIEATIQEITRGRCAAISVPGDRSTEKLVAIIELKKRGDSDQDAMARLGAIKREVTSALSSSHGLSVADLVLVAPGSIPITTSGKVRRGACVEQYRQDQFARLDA

T1 sequence (Q38C91 whole entry): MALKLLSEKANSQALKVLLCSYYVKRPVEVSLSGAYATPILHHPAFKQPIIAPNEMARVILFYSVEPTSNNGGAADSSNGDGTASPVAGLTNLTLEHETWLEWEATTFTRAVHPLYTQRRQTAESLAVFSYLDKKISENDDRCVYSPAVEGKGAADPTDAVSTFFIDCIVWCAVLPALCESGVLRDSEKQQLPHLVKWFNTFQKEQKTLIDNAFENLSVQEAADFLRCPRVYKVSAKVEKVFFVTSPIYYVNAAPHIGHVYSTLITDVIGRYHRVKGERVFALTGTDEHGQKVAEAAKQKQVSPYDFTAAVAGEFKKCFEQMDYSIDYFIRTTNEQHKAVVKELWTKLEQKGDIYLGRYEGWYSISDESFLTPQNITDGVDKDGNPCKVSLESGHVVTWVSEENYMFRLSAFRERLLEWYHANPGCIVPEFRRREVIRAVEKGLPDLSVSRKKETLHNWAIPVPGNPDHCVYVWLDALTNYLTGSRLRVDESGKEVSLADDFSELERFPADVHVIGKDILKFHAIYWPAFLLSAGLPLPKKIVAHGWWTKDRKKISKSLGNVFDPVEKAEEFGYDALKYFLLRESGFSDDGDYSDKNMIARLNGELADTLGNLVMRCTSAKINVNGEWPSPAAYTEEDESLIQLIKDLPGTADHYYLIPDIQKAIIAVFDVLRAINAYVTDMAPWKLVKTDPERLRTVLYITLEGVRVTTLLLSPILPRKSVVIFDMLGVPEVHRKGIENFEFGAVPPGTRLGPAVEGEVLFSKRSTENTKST
T3 sequence (P41143 whole entry): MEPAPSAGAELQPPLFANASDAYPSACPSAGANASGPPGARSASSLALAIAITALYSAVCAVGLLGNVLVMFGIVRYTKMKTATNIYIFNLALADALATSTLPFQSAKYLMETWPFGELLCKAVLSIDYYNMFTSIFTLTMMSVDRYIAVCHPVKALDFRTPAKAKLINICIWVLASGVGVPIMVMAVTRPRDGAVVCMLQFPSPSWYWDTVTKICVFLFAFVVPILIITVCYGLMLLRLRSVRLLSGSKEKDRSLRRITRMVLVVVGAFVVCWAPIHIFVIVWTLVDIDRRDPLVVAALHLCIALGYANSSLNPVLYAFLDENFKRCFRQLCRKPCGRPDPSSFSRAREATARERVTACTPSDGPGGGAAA
T4 sequence (P41145 whole entry): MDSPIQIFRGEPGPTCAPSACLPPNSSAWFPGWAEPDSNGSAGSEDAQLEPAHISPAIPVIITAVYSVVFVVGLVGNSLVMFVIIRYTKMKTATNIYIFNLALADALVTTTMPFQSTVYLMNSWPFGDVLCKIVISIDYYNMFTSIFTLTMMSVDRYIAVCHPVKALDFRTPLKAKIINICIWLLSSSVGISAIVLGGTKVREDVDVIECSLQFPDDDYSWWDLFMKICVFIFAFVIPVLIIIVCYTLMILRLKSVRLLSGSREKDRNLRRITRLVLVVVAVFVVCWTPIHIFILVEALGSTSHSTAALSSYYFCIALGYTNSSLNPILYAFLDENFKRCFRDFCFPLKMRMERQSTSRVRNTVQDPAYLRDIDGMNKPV
Mu-type opioid receptor, sequence (P35372 whole entry): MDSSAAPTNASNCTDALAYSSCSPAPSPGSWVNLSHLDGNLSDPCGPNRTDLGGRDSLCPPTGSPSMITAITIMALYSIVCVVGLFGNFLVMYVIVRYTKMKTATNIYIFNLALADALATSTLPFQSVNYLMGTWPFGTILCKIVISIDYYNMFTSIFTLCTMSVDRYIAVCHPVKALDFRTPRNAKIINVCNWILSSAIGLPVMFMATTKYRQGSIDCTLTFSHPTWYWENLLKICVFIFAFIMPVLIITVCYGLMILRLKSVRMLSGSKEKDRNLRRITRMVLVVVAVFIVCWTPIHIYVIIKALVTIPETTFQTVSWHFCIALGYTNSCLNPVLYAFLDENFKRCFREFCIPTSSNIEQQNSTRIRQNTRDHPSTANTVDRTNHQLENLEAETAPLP
Beta-galactosidase, sequence (Q8VNN2 whole entry): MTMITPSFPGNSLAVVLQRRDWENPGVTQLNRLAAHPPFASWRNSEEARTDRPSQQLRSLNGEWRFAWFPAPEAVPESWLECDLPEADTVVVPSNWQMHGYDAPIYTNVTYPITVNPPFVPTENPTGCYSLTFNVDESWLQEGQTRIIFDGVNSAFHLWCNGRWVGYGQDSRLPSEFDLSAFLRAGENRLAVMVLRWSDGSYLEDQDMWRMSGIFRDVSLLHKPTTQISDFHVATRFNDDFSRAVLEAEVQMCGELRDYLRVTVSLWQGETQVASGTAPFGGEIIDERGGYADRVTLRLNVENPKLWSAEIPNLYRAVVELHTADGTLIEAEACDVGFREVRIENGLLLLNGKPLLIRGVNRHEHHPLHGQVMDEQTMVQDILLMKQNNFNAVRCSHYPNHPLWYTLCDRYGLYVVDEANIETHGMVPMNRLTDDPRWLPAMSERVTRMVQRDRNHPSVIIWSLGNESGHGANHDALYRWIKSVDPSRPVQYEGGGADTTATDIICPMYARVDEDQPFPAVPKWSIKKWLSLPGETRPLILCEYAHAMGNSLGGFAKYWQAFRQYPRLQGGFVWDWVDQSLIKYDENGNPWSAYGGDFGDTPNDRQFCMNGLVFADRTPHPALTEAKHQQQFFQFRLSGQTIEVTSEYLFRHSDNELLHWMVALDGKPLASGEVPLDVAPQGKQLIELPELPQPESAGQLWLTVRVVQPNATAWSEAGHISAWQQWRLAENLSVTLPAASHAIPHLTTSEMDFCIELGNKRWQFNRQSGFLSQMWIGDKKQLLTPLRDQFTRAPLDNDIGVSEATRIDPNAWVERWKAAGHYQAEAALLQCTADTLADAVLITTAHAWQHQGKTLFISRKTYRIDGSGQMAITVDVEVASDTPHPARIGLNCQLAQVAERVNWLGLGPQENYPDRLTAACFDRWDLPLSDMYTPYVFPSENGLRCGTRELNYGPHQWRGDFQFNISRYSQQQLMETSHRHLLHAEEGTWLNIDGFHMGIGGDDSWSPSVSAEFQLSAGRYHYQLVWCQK

With `O=C(NCc1nc2ccccc2[nH]1)C1=C[C@@H](C2CCCCC2)C[C@@H](OCc2ccc(CO)cc2)O1` the AC50 (INS1) was 13.1 µM (active), the IC50 [1] was 6.42 µM (active) and the IC50 [2] was 38.9 µM (inactive). The IC50 [3] was 2.85 µM (active).
In the case of `COc1cc(/C=C/c2sc3ccccc3[n+]2CCCS(=O)(=O)[O-])ccc1O`, the IC50 [4] is reported as 20.5 µM (active), the IC50 [5] is reported as > 32 µM (inactive) and the CC50 [6] is reported as 100 µM (active). For the same compound, the IC50 [7] was 19.1 µM (active), the EC50 (Protein RecA) was 16.2 µM (active) and the AC50 [8] was > 380 µM (inactive). The IC50 [9] was greater than 32 µM, the EC50 (Mu-type opioid receptor) was > 32 µM (inactive) and the EC50 [10] was > 32 µM (inactive). The EC50 (Beta-galactosidase) was 14.1 µM (active).
In the case of `CC(=O)N1N=C(c2ccccc2)OC1c1ccc([N+](=O)[O-])s1` (stereo not given), the AC50 [11] is reported as 14.3 µM (active), the IC50 [12] is reported as 6.39 µM (active) and the IC50 (Caspase-3) is reported as 48.3 µM (active). For the same compound, the IC50 [13] was 6.49 µM (active), the EC50 [14] was 10.8 µM (active) and the EC50 [15] was 1.79 µM (active). The AC50 [16] was 39.3 µM (active), the AC50 [17] was 8.37 µM (active) and the IC50 (cells) was 43.3 µM (active).
`COc1cccc(S(=O)(=O)N(C)C[C@@H]2Oc3cc(C4=CCCCC4)ccc3S(=O)(=O)N([C@@H](C)CO)C[C@@H]2C)c1` gave an AbsAC35 [18] of 50.42 µM.
With `COc1cc([N+](=O)[O-])ccc1N=C(S)NNC(=O)c1ccc2c(c1)OCO2` the AC50 [19] was > 100 µM (inactive).

Source: ChEMBL document CHEMBL1201862, “PubChem BioAssay data set” (2004)
